In one experiment the test system is Aedes aegypti adults. The experiment is described as follows: Residual activity, treated bottles aged before loading (Example 9). It is filed as in vivo. How it is done:
(§1) Mosquit Bioassay. Adult mosquitoes were tested using the bottle bioassay method of Brogden, W. G., and McAllister, J. C., J. Am. Mosq. Control Assoc. 14:159–64 (1998), with minor modifications. Natural product extracts were two-fold serially diluted for a total of 8 concentrations ranging from 0.002% to 0.25% in 1.5 ml of acetone. Individual dilutions were added to 250 ml Wheaton glass bottles and capped. Bottles were manipulated to evenly coat all inner surfaces. The caps were removed and bottles were allowed to air-dry overnight. Once bottles were completely dry, 10–50 adult mosquitoes were aspirated into the bottles. Mosquitoes were held in the bottles for 24 h at 23° C. and 85% RH. Morbidity and mortality were recorded at 15, 30, 45, and 60 min and 24 hour intervals. One bottle for each replicate was treated with acetone only and served as a control. The dose-mortality data was evaluated with probit analysis, using the LdP Line software, to determine LC50 and LC90 values.

For another experiment, the system named is I. scapularis nymphs. The experiment is described as follows: Tick bioassay, modified disposable pipette method, treated vials (Example 9). It is filed as in vivo, Ixodes scapularis. The settings on record: for LC90: read-out: LC90. How it is done:
Tick Colonies. […] There was no known pesticide used at this location. Ticks were maintained at 21° C., 90% RH, and received a 16:8 h (light:dark) cycle as described in […]. Med. […] Tick and Flea Bioassays. […] A control treated with acetone only was run with each series. Tick and flea susceptibility was evaluated using a modified disposable pipette method. See, Barnard, D. R., et al., J. Econ. […] Three to 4 holes were made in the plastic cap to allow for air exchange. Nymphal ticks and adult fleas were then placed directly into the vials using forceps. Vials containing ticks or fleas were placed in desiccators for 24 h at 21° C. and 90% RH. […] For each time point, if ticks were incapable of movement, maintaining normal posture, leg coordination, ability to right themselves, or any signs of life, they were considered moribund or dead.

A further experiment concerns X. cheopis adults. Put plainly: Flea bioassay, treated vials (Example 9). The class given is in vivo. The settings on record: for LC90: read-out: LC90. How it is done:
Flea Colonies. Adult X. cheopis fleas (1–3 wk old) were obtained from a colony founded more than eight years ago using adults received from Tom Schwan, Rocky Mountain Laboratories, Hamilton, Mont. The area from which these original adult fleas were obtained, and the resulting colony, have no known histories of pesticide exposure.
Tick and Flea Bioassays. Concentrations of the compounds were prepared by 2-fold serial dilutions of a 0.5% (wt:vol) solution of the extracts in acetone. […] A control treated with acetone only was run with each series. Tick and flea susceptibility was evaluated using a modified disposable pipette method. See, Barnard, D. R., et al., J. Econ. Entomol.
(§2) The inner surface of 2-dram friction cap vials were treated with the compound/acetone solution, or acetone only as a control, and left to air-dry overnight. Three to 4 holes were made in the plastic cap to allow for air exchange. Nymphal ticks and adult fleas were then placed directly into the vials using forceps. Vials containing ticks or fleas were placed in desiccators for 24 h at 21° C. and 90% RH. Morbidity and mortality was recorded at 1, 2, 4, 8, and 24 h after initial exposure.

The test system of experiment [1] is Xenopsylla cheopis adults. The experiment is described as follows: Residual activity, treated vials aged before loading (Example 9). The class given is in vivo. How it is done:
(§3) Tick and Flea Bioassays. Concentrations of the compounds were prepared by 2-fold serial dilutions of a 0.5% (wt:vol) solution of the extracts in acetone. The approximate toxicity of individual compounds was determined with a total of 8 doses ranging from 0.002% to 0.25%. […] A control treated with acetone only was run with each series. Tick and flea susceptibility was evaluated using a modified disposable pipette method. See, Barnard, D. R., et al., J. Econ. Entomol. 74:466–69 (1981).
as §2, with “Groups of 10 nymphal I. scapularis and X. cheopis fleas were used in all tests, resulting in a total of 5,240 nymphs and 4,860 fleas exposed to the compounds. The” for “The”

In another experiment the test system is Ixodes scapularis nymphs. Described as above. The class given is in vivo. How it is done: as §3
as §2, with “Groups of 10 nymphal I. scapularis and X. cheopis fleas were used in all tests, resulting in a total of 5,240 nymphs and 4,860 fleas exposed to the compounds. The” for “The”

The test system of the next experiment is Ae. aegypti adults. Put plainly: Mosquito bottle bioassay (Example 9). The class given is in vivo. As for the experimental part: Mosquito Colonies. Aedes aegypti adult mosquitoes were obtained from an existing colony at the Centers for Disease Control and Prevention (CDC), Division of Vector-Borne Infectious Diseases (DVBID), Fort Collins, Colo. This colony has been maintained for over fifteen years with no known history of exposure to pesticides. Mosquitoes were reared at 28° C., 85% RH, and a 14:10 h (light:dark) cycle. Larvae were grown in de-ionized water and fed ground liver powder solution ad libitum. Fourth instars were removed and placed in emergence cages, and adults were fed a 2% sucrose solution until assayed. Adults were exposed to test products at 4–7 d after emergence.
as §1

Experiment [2] relates to ticks, fleas, and mosquitoes. The experiment is described as follows: Residual activity, overall statements for ticks, fleas and mosquitoes (Example 9). The settings on record: 1 to 4 weeks after treatment.
Setting [3] is: residual activity at 1 week after treatment.
Where [4] appears, read: residual activity at 2 weeks after treatment.
The mark [5] stands for this setting: Ixodes scapularis, 24 h, 24 h exposure, 95% CI in parentheses.
Where [6] appears, read: Xenopsylla cheopis, 24 h, 24 h exposure, 95% CI in parentheses, read-out: LC50.
Setting [7] is: Xenopsylla cheopis, 24 h, 24 h exposure, 95% CI in parentheses.
The mark [8] stands for this setting: Aedes aegypti, 24 h, 24 h exposure, 95% CI in parentheses, read-out: LC50.
The mark [9] stands for this setting: Aedes aegypti, 24 h, 24 h exposure, 95% CI in parentheses, read-out: LC90 (the source's name).
Setting [10] is: residual activity at 4 weeks after treatment.
The mark [11] stands for this setting: 24 h exposure, 95% CI in parentheses.

In brackets after ≈: the same amount, converted by molar mass. Read-outs that look alike come from different tables or passages of the source.

As to `C=C(C=O)C1CCC2=CCC[C@@H](C)[C@]2(C)C1` (some centres unmarked) [Compound 15, valencene-13-aldehyde], the LC50 was 0.011 (0.0095–0.013) percent concentration, wt:vol in the experiment with Aedes aegypti adults (setting [3]); 0.014 (0.0074–0.025) percent concentration, wt:vol in the experiment on Aedes aegypti adults (setting [4]); 59 µg/mL (≈ 270 µM) in the experiment with I. scapularis nymphs (Ixodes scapularis, 24 h); 49 µg/mL (≈ 224 µM) in the experiment on X. cheopis adults (setting [6]); 0.059 percent concentration, wt:vol in experiment [1] (setting [3]); 0.026 (0.02–0.033) percent concentration, wt:vol in the experiment with Ixodes scapularis nymphs (setting [3]). In the experiment on Ae. aegypti adults (setting [8]), the LC50 is 24 µg/mL (≈ 110 µM). Moreover, the LC90 in the experiment with Aedes aegypti adults (setting [3]) was 0.027 (0.022–0.037) percent concentration, wt:vol; in the experiment with Aedes aegypti adults (setting [4]), 0.037 (0.029–0.127) percent concentration, wt:vol; in the experiment with I. scapularis nymphs (setting [5]) it was 170 µg/mL (≈ 779 µM); in the experiment with X. cheopis adults (setting [7]) it was 85 µg/mL (≈ 389 µM); in experiment [1] (setting [3]) it was 0.148 percent concentration, wt:vol; in the experiment with Ixodes scapularis nymphs (setting [3]), 0.072 (0.052–0.121) percent concentration, wt:vol. In the experiment on Ae. aegypti adults (setting [9]), the EC90 is 34 µg/mL (≈ 156 µM). The “residual activity (in words)” value in experiment [2] is on record as “considerable biological activity”.

For `C=C(C)C1CCC23OC2C(=O)C[C@@H](C)[C@]3(C)C1` (some centres unmarked) [Compound 17, nootkatone-1,10-epoxide], the LC50 in the experiment with I. scapularis nymphs (Ixodes scapularis, 24 h) amounted to 200 µg/mL (≈ 853 µM); with X. cheopis adults (setting [6]) it was 170 µg/mL (≈ 725 µM); in the experiment on Ae. aegypti adults (setting [8]), 2230 µg/mL (≈ 9520 µM). The values for the LC90 with I. scapularis nymphs (setting [5]) and in the experiment with X. cheopis adults (setting [7]) were 550 µg/mL (≈ 2350 µM) and 590 µg/mL (≈ 2520 µM), respectively. Further, in the experiment with Ae. aegypti adults (setting [9]), the EC90 was 20000 µg/mL (≈ 85400 µM).

With `C[C@@H]1CC(=O)C2OC23CCC(C2(C)CO2)C[C@@]13C` (some centres unmarked) [Compound 18, nootkatone-1,10-11,12-diepoxide], the LC50 is 610 µg/mL (≈ 2440 µM) in the experiment on I. scapularis nymphs (Ixodes scapularis, 24 h); 640 µg/mL (≈ 2560 µM) in the experiment on X. cheopis adults (setting [6]); 590 µg/mL (≈ 2360 µM) in the experiment on Ae. aegypti adults (setting [8]). Moreover, the values for the LC90 with I. scapularis nymphs (setting [5]) and in the experiment on X. cheopis adults (setting [7]) were 2450 µg/mL (≈ 9790 µM) and 4840 µg/mL (≈ 19300 µM), respectively. In the experiment with Ae. aegypti adults (setting [9]), the EC90 turned out to be 1140 µg/mL (≈ 4550 µM).

On to `C=C(C)[C@@H]1CCC2=CC(=O)C[C@@H](C)[C@]2(C)C1` [Compound 9, Nootkatone], for which the LC50 with Aedes aegypti adults (setting [3]) is given as 0.0089 (0.0077–0.01) percent concentration, wt:vol; with Aedes aegypti adults (setting [4]), 0.0042 (0.0036– percent concentration, wt:vol; with Aedes aegypti adults (setting [10]), 0.018 percent concentration, wt:vol; with I. scapularis nymphs (setting [11]), 0.0033 (0.0027–0.004) percent concentration, wt:vol; with X. cheopis adults (setting [11]), 0.0066 (0.0046–0.0086) percent concentration, wt:vol; in experiment [1] (setting [3]), 0.043 percent concentration, wt:vol. Moreover, the LC50 was 0.027 percent concentration, wt:vol in experiment [1] (setting [4]); 0.0084 (0.005–0.013) percent concentration, wt:vol in the experiment with Ixodes scapularis nymphs (setting [3]); 0.0089 (0.0068–0.012) percent concentration, wt:vol in the experiment on Ixodes scapularis nymphs (setting [4]); 0.0075 percent concentration, wt:vol in the experiment with Ae. aegypti adults (setting [11]). Besides, the LC90 with Aedes aegypti adults (setting [3]) is on record as 0.018 (0.015–0.023) percent concentration, wt:vol; in the experiment with Aedes aegypti adults (setting [4]) it was 0.0088 (0.0074–0.011) percent concentration, wt:vol; with Aedes aegypti adults (setting [10]), 0.036 percent concentration, wt:vol; in experiment [1] (setting [3]), 0.259 percent concentration, wt:vol; in experiment [1] (setting [4]), 0.085 percent concentration, wt:vol; in experiment [1] (setting [10]), 0.111 (0.08–0.193) percent concentration, wt:vol. Besides, the LC90 is on record as 0.08 (0.045–0.22) percent concentration, wt:vol with Ixodes scapularis nymphs (setting [3]) and 0.027 (0.02–0.045) percent concentration, wt:vol with Ixodes scapularis nymphs (setting [4]). Further, the “residual activity (in words)” value in experiment [2] is “considerable biological activity”.

Take `C=C(C)[C@@H]1CCC2=CC(=O)C[C@@H](C)[C@]2(C)C1` [Compound 8, Nootkatone]: the LC50 in the experiment on Aedes aegypti adults (setting [3]) is 0.0065 percent concentration, wt:vol; with Aedes aegypti adults (setting [4]), 0.0067 (0.0058– percent concentration, wt:vol; with Aedes aegypti adults (setting [10]), 0.02 percent concentration, wt:vol; with I. scapularis nymphs (setting [11]) it was 0.0061 (0.005–0.0072) percent concentration, wt:vol; in the experiment on X. cheopis adults (setting [11]) it was 0.0029 (0.002–0.0038) percent concentration, wt:vol; in the experiment with X. cheopis adults (24 h exposure, 95% CI in parentheses, listed as compound 8) it was 0.0029 percent concentration, wt:vol. Also, the LC50 in experiment [1] (setting [3]) was 0.02 (0.016–0.026) percent concentration, wt:vol; in experiment [1] (setting [4]), 0.018 (0.013–0.024) percent concentration, wt:vol; in experiment [1] (setting [10]), 0.035 (0.026–0.051) percent concentration, wt:vol; with Ixodes scapularis nymphs (setting [3]) it was 0.025 percent concentration, wt:vol; in the experiment on Ixodes scapularis nymphs (setting [4]) it was 0.019 (0.014–0.024) percent concentration, wt:vol; in the experiment with Ixodes scapularis nymphs (setting [10]), 0.25 percent concentration, wt:vol. Besides, the LC90 in the experiment with Aedes aegypti adults (setting [3]) was 0.014 percent concentration, wt:vol; with Aedes aegypti adults (setting [4]), 0.012 (0.01–0.015) percent concentration, wt:vol; in the experiment on Aedes aegypti adults (setting [10]), 0.29 percent concentration, wt:vol; in experiment [1] (setting [3]), 0.053 (0.04–0.082) percent concentration, wt:vol; in experiment [1] (setting [4]), 0.081 (0.054–0.156) percent concentration, wt:vol; in experiment [1] (setting [10]), 0.161 (0.098–0.387) percent concentration, wt:vol. Besides, the LC90 is 0.071 percent concentration, wt:vol in the experiment on Ixodes scapularis nymphs (setting [3]); 0.056 (0.04–0.094) percent concentration, wt:vol with Ixodes scapularis nymphs (setting [4]); 0.71 percent concentration, wt:vol in the experiment with Ixodes scapularis nymphs (setting [10]). The “residual activity (in words)” value in experiment [2] is on record as “considerable biological activity”.

For `Cc1ccc(C(C)C)cc1O` [Compound 4, Carvacrol], the LC50 in the experiment with I. scapularis nymphs (Ixodes scapularis, 24 h) amounted to 68 µg/mL (≈ 453 µM); in the experiment on X. cheopis adults (Xenopsylla cheopis, 24 h), 59 µg/mL (≈ 393 µM); with Ae. aegypti adults (Aedes aegypti, 24 h), 51 µg/mL (≈ 339 µM). For the same molecule, the LC90 in the experiment on I. scapularis nymphs (Ixodes scapularis, 24 h) came to 140 µg/mL (≈ 932 µM); in the experiment with X. cheopis adults (Xenopsylla cheopis, 24 h), 140 µg/mL (≈ 932 µM). The EC90 in the experiment on Ae. aegypti adults (Aedes aegypti, 24 h, read-out: LC90) came out at 140 µg/mL (≈ 932 µM).

The values above are taken from patent US7129271B2, “Compounds for pest control and methods for their use” (The United States of America as represented by the …, priority 2000, dated 2006).
